# Laboratory results taken from US8545834B2, “G-substrate for the treatment and prevention of parkinson's disease” (The McLean Hospital Corporation, priority 2007, dated 2013).
# Key:
# PP2A = PP2A activity assay (immunoprecipitated PP2A, phosphopeptide, Malachite Green); assay type: cell-based, human
# Description: PP2A activity was measured in control BE(2)-M17 cells at various incubation times (t=0, 1, 2, 5 and 8 hr) after exposure to 50 μM 6-OHDA. […] Control, wild-type, and T123A G-substrate-expressing cells were then exposed to 50 μM 6-OHDA for 2 hours before measurement of PP2A activity.
# PP2A activity was measured using a non-radioactive kit according to the manufacturer's instruction (Upstate Biotechnologies, Lake Placid, N.Y.). After 50 μM 6-OHDA exposure with various times, cells were harvested in 20 mM imidazole-HCl, 2 mM EDTA, 2 mM EGTA, pH7 with a protease inhibitor cocktail (Sigma). Protein concentrations of the lysates were measured using BCA assay (Pierce) and 500 μg of protein was immunoprecipitated using an anti-PP2A catalytic subunit antibody and protein A-Sepharose beads. Immunoprecipitated PP2A was then incubated with phosphopeptide (K-R-pT-I-R-R (SEQ ID NO: 8)) for 10 min at 37° C. Dephosphorylation of the phosphopeptide was assayed spectrophotometrically at 650 nm using Malachite Green.
# BE(2)-M17 cells = assay: In vitro protection assays (MTS cell viability, LDH release) against neurotoxins; assay type: cell-based, human; conditions: for protection against 50 μM 6-OHDA exposure by PP2A inhibition (MTS cellular viability): BE(2)-M17 cells without elevated G-substrate, normalized to control
# Description: Viability of the M17 cells was assessed following exposure to a variety of neurotoxins, each representing different aspects of PD pathology. 6-hydroxydopamine (6-OHDA) causes oxidative stress. MG-132 induces proteasome inhibition. And, MPP+ causes mitochondrial dysfunction by inhibiting Complex I. Cytotoxicity of M17 cells was determined using both cell viability assays and LDH release. G-substrate overexpression in M17 cells was confirmed by Western blot analysis (FIG. 3A) and by immunocytochemistry (FIG. 3B).
# BE(2)-M17 cells were transduced with lentivirus expressing control or G-substrate with a multiplicity of infection 15. Cells were grown in Optimem™ (Invitrogen, Carlsbad, Calif.) supplemented with 10% heat-inactivated fetal calf serum (Hyclone, Logan, Utah), nonessential amino acid and sodium pyruvate. Cells were maintained at 37° C., in 5% CO2 humid atmosphere. For the bioassay, cells were plated in 96 well plates at 5000 per well. The next day, cells were treated with various concentrations of 6-OHDA (Sigma), MG-132 (Calbiochem) and MPP+ (Sigma) for 20 hrs. The supernatant was used to determine cytotoxicity using LDH release assay kit (Roche, Indianapolis, Ind.) and the cells remaining on the plate was used to determine cell viability using MTS based solution, CellTiter 96 AQueous One™ solution cell proliferation assay (Promega, Madison, Wis.).
# Three different siRNAs for human G-substrate as described herein, a negative control siRNA, and a validated Akt siRNA (Ambion; Austin, Tex.) were used. Cells were plated in 96 well plates at 5000 per well with siRNAs and siPORT NeoFX transfection agent (Ambion, Austin, Tex.). After 48 hrs of incubation with siRNAs, each of the toxicants (6-OHDA, MG-132 or MPP+) were applied to the cells. Cell viability and cytotoxicity was measured after 20 hrs of toxin exposure.
# A9 DA neurons = assay type: in vivo, rat; conditions: rats, intra-striatal 6-OHDA
# Description: Retrograde 6-OHDA lesioning within the striatum is a well-established method of creating progressive degeneration of A9 DA neurons. The loss of TH immunoreactivity reflects actual loss of DA neurons (Sauer, 1994).
# The in vivo neuroprotective effects of G-substrate against 6-OHDA-induced toxicity was examined by injecting 6-OHDA into the corpus striatum of rats which previously had either G-substrate or control genes (empty vector or YFP) delivered to the midbrain using the lentivirus as described above. 6-OHDA induced approximately an 80% loss of TH-positive neurons in the midbrain (FIG. 12Q) and complete loss of TH immunoreactivity in the striatum (data not shown). The severity of the striatal insult in this paradigm precluded our ability to usefully measure protection of striatal nerve terminals. […] Furthermore, most of the surviving TH-positive neurons in lenti G-substrate-transduced rats were strongly G-substrate-positive (FIGS. 12G-12L).
# Rats received two 2.75 μl stereotaxic injections of either lenti-empty vector+lenti-eGFP (n=19), lenti-G substrate+lenti-eGFP (n=19), or lenti-YFP (n=14) and delivered at a rate of 0.2 μl/min using microinfusion pumps (Stoelting Co, Wood Dale, Ill.) with 10 min wait times after each injection. Lenti-eGFP was added to each condition, excluding the YFP condition, to serve as an exogenous marker for surgical targeting (0.5 μl of the total 5.5 μl A volume). SN injection coordinates were as follows: site 1: AP −4.8, ML −2.0, DV −7.2; site 2: AP −5.5, ML −1.8, DV −7.2; and tooth bar set at −3.3. Virus titers (p24) were as follows: G substrate, 60 ng/μl; empty vector, 60 ng/μl; eGFP, 83 ng/μl; and YFP, 60 ng/μl.
# Two weeks following lentiviral injection, animals (lenti-empty vector+lenti-eGFP (n=9), lenti-G substrate+lenti-eGFP (n=9), or lenti-YFP (n=14)) received three 2.5 μl stereotaxic injections of 3.0 μg/μl 6-OHDA (total dose=22.5 μg 6-OHDA) delivered at a rate of 0.5 μl/min and 5 min wait times after each injection. Striatum injection coordinates were as follows: site 1: AP +1.3, ML −2.8, DV −4.5; site 2: AP +0.2, ML, −3.0, DV −5.0; site 3: AP −0.6, ML −4.0, DV −5.5; and tooth bar set at −3.3. The lesion was allowed to progress for 3 weeks after which animals were sacrificed for post mortem analyses.
# Brains were cut frozen in the coronal plane at a thickness of 40 μm on a sliding microtome and six series of sections were stored in cryoprotectant. Two full series of sections were processed for visualization of tyrosine hydroxylase (TH) via the biotin-labeled antibody procedure. Briefly, following several washes in a PBS solution containing 0.01% Triton X-100 (PBS-T), endogenous peroxidase was quenched in a 3% hydrogen peroxide solution and background staining was then inhibited in a 5% normal goat serum solution. […]
# VMAT2 = assay: Western blot of VMAT2 expression in M17 cells; assay type: cell-based, human; conditions: naïve M17 cells
# Description: BE(2)-M17 cells were used to investigate the interaction between G-substrate and α-synuclein, a known risk factor and possible causative agent in Parkinson's disease. […] Likewise, VMAT2 expression was reduced in naïve M17 cells following the reduction in endogenous G-substrate using siRNA (FIG. 10C).
# M17 cells transiently and stably overexpression α-synuclein were transfected using the G-substrate lentiviral vector described above.
# The PP2A regulation of VMAT 2 was investigated in M17 cells. PP2A levels were reduced using RNAi. […] The effect of PP2A inhibition was not generalized to other dopaminergic markers tested.
# Cells and tissue samples were collected from and suspended in lysis buffer containing: 50 mM Tris-HCl, 0.15 M NaCl, 0.32 M sucrose, 1.0 mM EDTA, and 1% NP-40. In addition, phosphatase inhibitors I and II (1:100) and protease inhibitors (1:100) were added fresh prior to cell lysis (Sigma-Aldrich, P2850, P5276, and P8340 respectively). Following cell lysis, the homogenate was centrifuged, a portion of the supernatant was reserved for protein determination (BCA Assay, Pierce, Rockford, Ill.) and the remaining was stored at −20° C. 20 μg (in vitro cell preps) and 50 μg (tissue dissections) of solubilized protein were mixed 1:1 with sample buffer and boiled for 5 min. The samples and molecular weight standards were separated using the Criterion precast 10% SDS-polyacrylamide gel system (Bio-Rad, Hercules, Calif.). After electrophoresis, the proteins were electrically transferred to PVDF membranes at 100 V for 30 min. After transfer, blots were incubated in Tris-buffered saline with 0.1% Tween 20 (TBS-T) containing 5% BSA. Subsequently, blots were incubated with the following antibodies at 4° C. overnight (1:1000 unless otherwise stated): phospho-Akt (ser473), phospho-GSK3β (ser9), phospho-erk1/2, and phospho-p38 (Cell Signaling Technologies, Danvers, Mass.). HRP-conjugated secondary antibodies were then applied and immunoreactive bands were visualized with chemiluminescence (Amersham Biosciences, Arlington Heights, Ill.) and exposed onto film. Immunoblots were then stripped and re-probed for the expression of the total protein (Cell Signaling) and beta-actin (1:10 000) (Abcam) to serve as a loading control. Optical density analysis (NIH image) was used to determine the relative abundance of protein in each sample. The optical densities of the phospho epitopes were standardized to their respective total proteins and this value was used in the statistical analyses.
# [1] = lentiviral overexpression in BE(2)-M17 cells, toxin 20 hrs, compared to control
compound,measurement,setting,value
"T123A mutant G-substrate: mutant G-substrate with Thr to Ala point mutation at Thr 123 (T119A of human), overexpressed from a lentiviral vector",PP2A activity in G-substrate-expressing cells,"PP2A; BE(2)-M17 cells exposed to 50 μM 6-OHDA for 2 hours, versus control cells","reduced compared to controls, but not reduced as much as observed in the wild-type G-substrate-expressing cells"
same,protection against 6-OHDA and MG-132 compared to the wild-type,BE(2)-M17 cells; lentiviral overexpression in BE(2)-M17 cells,significantly less effective
same,"protection against MPP+-induced toxicity (cell viability, LDH release)","BE(2)-M17 cells; lentiviral overexpression in BE(2)-M17 cells, toxin 20 hrs",neither wild-type nor T123A mutant G-substrate overexpression was protective
same,"neuroprotection against 6-OHDA toxicity (cell viability, LDH release)",BE(2)-M17 cells; [1],neuroprotective
same,"neuroprotection against MG-132 toxicity (cell viability, LDH release)",BE(2)-M17 cells; [1],neuroprotective
"NCCc1cc(O)c(O)cc1O [6-OHDA, 6-hydroxydopamine, reference compound]",PP2A activity compared to basal activity,"PP2A; control BE(2)-M17 cells, 50 μM 6-OHDA, t=1, 2, 8 hr (all times except t=5 hr)",significantly increased
same,loss of TH-positive neurons in the midbrain,A9 DA neurons; 3 weeks,~80%
same,loss of TH immunoreactivity in the striatum,A9 DA neurons; data not shown,complete loss
"COC[C@@H]([C@H](O)[C@H](O)C(=O)NCC[C@H](C)c1nc(/C=C/C[C@@H]2O[C@]3(C[C@@H](O)[C@@H]2C)O[C@H]([C@H](C[C@H](O)[C@H](C)[C@H](O)[C@H](C)/C=C(C)/C(C)=C/C=C/C(C)=C\C#N)OC)[C@H](OP(=O)(O)O)C3(C)C)co1)N(C)C [calyculin A, reference compound]",VMAT2 expression,VMAT2,increased VMAT2 levels
same,protection against 50 μM 6-OHDA exposure by PP2A inhibition (MTS cellular viability),BE(2)-M17 cells,none of these methods alone were protective
"C=C1[C@@H](O)[C@@H]2O[C@]3(CC[C@H](/C=C/[C@@H](C)[C@@H]4CC(C)=C[C@@]5(O[C@H](C[C@@](C)(O)C(=O)O)CC[C@H]5O)O4)O3)CC[C@H]2O[C@@H]1[C@@H](O)C[C@H](C)[C@H]1O[C@@]2(CCCCO2)CC[C@H]1C [okadaic acid, reference compound]",VMAT2 expression,VMAT2,increased VMAT2 levels
same,protection against 50 μM 6-OHDA exposure by PP2A inhibition (MTS cellular viability),BE(2)-M17 cells,none of these methods alone were protective
